The experiment deals with 2G12. The experiment can be described thus: Binding curve and KD determination of 2G12-glycopeptide interaction (radiolabeled glycopeptide, protein G magnetic bead capture, scintillation counting). The method, then:
The resulting mRNAs were purified by denaturing PAGE or MEGAclear kit (Ambion), and 1 μM RNA was used in PURE system translation (reaction volume of translation varied). Typically, 25 μL of translated reaction was diluted with 100 μL of binding buffer (50 mM Tris-HCl, pH 7.8, 300 mM NaCl, 5 mM β-mercaptoethanol) and 25 μL of Ni-NTA agarose suspension (Qiagen), and tumbled at room temperature for 1 h. The resins were transferred to 0.22 μm spin-filter rinsing with 100 μL of bind buffer, and washed with 3×200 μL of bind buffer and 2×200 μL of wash buffer (50 mM Tris-HCl, pH 7.8, 5 mM β-mercaptoethanol). The bound peptides were eluted with 2×25 μL of 0.1% TFA. The eluted peptides were analyzed by MALDI-TOF MS, using α-Cyano-4-hydroxycinnamic acid matrix (Sigma), with or without desalting with ZipTip C18 resin (Millipore). For calibration of MALDI-TOF-MS, at least two of the following standards, bovine insulin, E. coli thioredoxin and/or horse apomyoglobin were used. To quantitate peptide yields, the radioactivities were measured by liquid scintillation counting. For the click reaction, the translated and purified peptides were mixed with 0.1% (v/v) Triton X-100, and then dialyzed against H2O containing 0.1% (v/v) Triton X-100 using Slide-A-Lyzer MINI Dialysis Devices, 3.5K MWCO (Thermo Scientific) overnight to desalt. After dialysis, the peptides were divided into two portions: one was glycosylated via the click reaction, while the other was saved as a non-glycosylated peptide control. […] The glycosylated peptide (<4 pmol) was incubated with 100 nM 2G12 in selection buffer (40 μL) at room temp. The solution was then tumbled 30 min with 0.12 mg of equilibrated Dynabeads Protein G to capture 2G12-glycopeptide complex. Beads were then washed with 3×40 μL of selection buffer and resuspended in 10 μL of selection buffer. The resuspended beads were heated at 70° C. for 30 min to denature 2G12 and elute glycopeptides, chilled on ice for 5 min, and tumbled at room temperature for 10 min. The magnetically isolated supernatant was recovered and the beads were rinsed with 10 μL of selection buffer.
Then, the solution was added to 0.12 mg of pre-equilibrated Dynabeads Protein G and tumbled at room temperature for 30 min. The supernatant was removed and the beads were washed with 3×40 μL of selection buffer. The radioactivities of the supernatant and wash solutions were measured by liquid scintillation counting as unbound fractions. […] The beads were resuspended in 40 μL of selection buffer, heated at 70° C. for 30 min to elute the bound glycopeptides, chilled on ice for 5 min, and tumbled at room temperature for 10 min. The supernatant was removed, and the beads were washed with 40 μL of selection buffer and resuspended in 40 μL of selection buffer. The radioactivities of these solutions and suspensions were measured by liquid scintillation counting separately and the values were combined as apparent bound fractions. […] All experiments were done at least in triplicate. KDs were calculated as described in the footnote of Table 4 (below).

A value given as a limit tells only on which side of the number the result lay.

For `CC[C@H](C)[C@H](NC(=O)[C@H](CCCNC(=N)N)NC(=O)[C@H](Cc1c[nH]cn1)NC(=O)[C@H](Cc1ccccc1)NC(=O)[C@H](CC(C)C)NC(=O)[C@H](C)NC(=O)[C@H](CC(C)C)NC(=O)[C@H](C)NC(=O)[C@H](Cc1ccc(O)cc1)NC(=O)[C@H](CCc1cn(C2CCC(OC3O[C@H](CO[C@H]4O[C@H](CO[C@H]5O[C@H](CO)[C@@H](O)[C@H](O)[C@@H]5O[C@H]5O[C@H](CO)[C@@H](O)[C@H](O)[C@@H]5O)[C@@H](O)[C@H](O[C@H]5O[C@H](CO)[C@@H](O)[C@H](O)[C@@H]5O[C@H]5O[C@H](CO)[C@@H](O)[C@H](O)[C@@H]5O)[C@@H]4O)[C@@H](O)[C@H](O[C@H]4O[C@H](CO)[C@@H](O)[C@H](O)[C@@H]4O[C@H]4O[C@H](CO)[C@@H](O)[C@H](O)[C@@H]4O[C@H]4O[C@H](CO)[C@@H](O)[C@H](O)[C@@H]4O)[C@@H]3O)CC2)nn1)NC(=O)[C@H](CC(=O)O)NC(=O)[C@@H](NC(=O)[C@@H](NC(=O)[C@H](CCC(N)=O)NC(=O)[C@H](CCc1cn(C2CCC(OC3O[C@H](CO[C@H]4O[C@H](CO[C@H]5O[C@H](CO)[C@@H](O)[C@H](O)[C@@H]5O[C@H]5O[C@H](CO)[C@@H](O)[C@H](O)[C@@H]5O)[C@@H](O)[C@H](O[C@H]5O[C@H](CO)[C@@H](O)[C@H](O)[C@@H]5O[C@H]5O[C@H](CO)[C@@H](O)[C@H](O)[C@@H]5O)[C@@H]4O)[C@@H](O)[C@H](O[C@H]4O[C@H](CO)[C@@H](O)[C@H](O)[C@@H]4O[C@H]4O[C@H](CO)[C@@H](O)[C@H](O)[C@@H]4O[C@H]4O[C@H](CO)[C@@H](O)[C@H](O)[C@@H]4O)[C@@H]3O)CC2)nn1)NC(=O)[C@H](CCCCN)NC(=O)[C@H](CC(C)C)NC(=O)[C@H](C)NC(=O)[C@H](C)NC(=O)[C@H](CCc1cn(C2CCC(OC3O[C@H](CO[C@H]4O[C@H](CO[C@H]5O[C@H](CO)[C@@H](O)[C@H](O)[C@@H]5O[C@H]5O[C@H](CO)[C@@H](O)[C@H](O)[C@@H]5O)[C@@H](O)[C@H](O[C@H]5O[C@H](CO)[C@@H](O)[C@H](O)[C@@H]5O[C@H]5O[C@H](CO)[C@@H](O)[C@H](O)[C@@H]5O)[C@@H]4O)[C@@H](O)[C@H](O[C@H]4O[C@H](CO)[C@@H](O)[C@H](O)[C@@H]4O[C@H]4O[C@H](CO)[C@@H](O)[C@H](O)[C@@H]4O[C@H]4O[C@H](CO)[C@@H](O)[C@H](O)[C@@H]4O)[C@@H]3O)CC2)nn1)NC(=O)[C@H](CCc1cn(C2CCC(OC3O[C@H](CO[C@H]4O[C@H](CO[C@H]5O[C@H](CO)[C@@H](O)[C@H](O)[C@@H]5O[C@H]5O[C@H](CO)[C@@H](O)[C@H](O)[C@@H]5O)[C@@H](O)[C@H](O[C@H]5O[C@H](CO)[C@@H](O)[C@H](O)[C@@H]5O[C@H]5O[C@H](CO)[C@@H](O)[C@H](O)[C@@H]5O)[C@@H]4O)[C@@H](O)[C@H](O[C@H]4O[C@H](CO)[C@@H](O)[C@H](O)[C@@H]4O[C@H]4O[C@H](CO)[C@@H](O)[C@H](O)[C@@H]4O[C@H]4O[C@H](CO)[C@@H](O)[C@H](O)[C@@H]4O)[C@@H]3O)CC2)nn1)NC=O)C(C)C)[C@@H](C)O)C(=O)N[C@@H](CC(C)C)C(=O)NCC(=O)N[C@@H](CO)C(=O)NCC(=O)N[C@@H](CO)C(=O)N[C@@H](CC(C)C)C(=O)NCC(=O)N[C@@H](Cc1c[nH]cn1)C(=O)N[C@@H](Cc1c[nH]cn1)C(=O)N[C@@H](Cc1c[nH]cn1)C(=O)N[C@@H](Cc1c[nH]cn1)C(=O)N[C@@H](Cc1c[nH]cn1)C(=O)N[C@@H](Cc1c[nH]cn1)C(=O)N[C@@H](CCCNC(=N)N)C(=O)N[C@@H](CC(=O)O)C(=O)N[C@@H](Cc1ccc(O)cc1)C(=O)N[C@@H](CCCCN)C(=O)N[C@@H](CC(=O)O)C(=O)N[C@@H](CC(=O)O)C(=O)N[C@@H](CC(=O)O)C(=O)N[C@@H](CC(=O)O)C(=O)N[C@@H](CCCCN)C(=O)O` (stereo partly shown) [Clone 10F2-Δ11, XXAALKXQVTDXYALALFHRIL], the “Fmax [%]” value (Table 6 mutational analysis, radioactive bead binding assay) amounted to 70%. Besides, the Kd (in general, a measure of binding affinity in units of concentration) (Table 6 mutational analysis, radioactive bead binding assay, ribosomally translated) was 0.89 nM. Further, where the note is “truncated clones, Table 6”, the “binding to 2G12 after truncation (in words)” value is given as “tight binding”.

Under “Table 4, ribosomally translated radiolabeled glycopeptide with His6/FLAG tag, room temperature, fit Fbound=(Fmax[2G12])/(KD+[2G12]), error = standard error of fit”, `CC[C@H](C)[C@H](NC(=O)[C@H](CC(=O)O)NC(=O)[C@@H]1CCCN1C(=O)[C@H](C)NC(=O)[C@H](C)NC(=O)[C@H](CO)NC(=O)[C@@H](NC(=O)[C@@H]1CCCN1C(=O)[C@H](Cc1c[nH]cn1)NC(=O)[C@H](CCc1cn(C2CCC(OC3O[C@H](CO[C@H]4O[C@H](CO[C@H]5O[C@H](CO)[C@@H](O)[C@H](O)[C@@H]5O[C@H]5O[C@H](CO)[C@@H](O)[C@H](O)[C@@H]5O)[C@@H](O)[C@H](O[C@H]5O[C@H](CO)[C@@H](O)[C@H](O)[C@@H]5O[C@H]5O[C@H](CO)[C@@H](O)[C@H](O)[C@@H]5O)[C@@H]4O)[C@@H](O)[C@H](O[C@H]4O[C@H](CO)[C@@H](O)[C@H](O)[C@@H]4O[C@H]4O[C@H](CO)[C@@H](O)[C@H](O)[C@@H]4O[C@H]4O[C@H](CO)[C@@H](O)[C@H](O)[C@@H]4O)[C@@H]3O)CC2)nn1)NC(=O)[C@H](C)NC(=O)[C@H](Cc1c[nH]cn1)NC(=O)[C@H](Cc1ccccc1)NC(=O)[C@H](Cc1ccc(O)cc1)NC(=O)[C@H](Cc1c[nH]cn1)NC(=O)[C@H](C)NC(=O)[C@H](CO)NC(=O)[C@H](CCCNC(=N)N)NC(=O)[C@H](CO)NC(=O)[C@H](CC(C)C)NC(=O)[C@H](CCc1cn(C2CCC(OC3O[C@H](CO[C@H]4O[C@H](CO[C@H]5O[C@H](CO)[C@@H](O)[C@H](O)[C@@H]5O[C@H]5O[C@H](CO)[C@@H](O)[C@H](O)[C@@H]5O)[C@@H](O)[C@H](O[C@H]5O[C@H](CO)[C@@H](O)[C@H](O)[C@@H]5O[C@H]5O[C@H](CO)[C@@H](O)[C@H](O)[C@@H]5O)[C@@H]4O)[C@@H](O)[C@H](O[C@H]4O[C@H](CO)[C@@H](O)[C@H](O)[C@@H]4O[C@H]4O[C@H](CO)[C@@H](O)[C@H](O)[C@@H]4O[C@H]4O[C@H](CO)[C@@H](O)[C@H](O)[C@@H]4O)[C@@H]3O)CC2)nn1)NC(=O)[C@H](CC(C)C)NC(=O)[C@H](Cc1ccccc1)NC(=O)[C@H](C)NC(=O)[C@@H]1CCCN1C(=O)[C@H](CO)NC(=O)[C@@H]1CCCN1C(=O)[C@H](CS)NC(=O)[C@H](C)NC(=O)[C@@H](NC(=O)[C@H](CCC(N)=O)NC(=O)[C@H](CCc1cn(C2CCC(OC3O[C@H](CO[C@H]4O[C@H](CO[C@H]5O[C@H](CO)[C@@H](O)[C@H](O)[C@@H]5O[C@H]5O[C@H](CO)[C@@H](O)[C@H](O)[C@@H]5O)[C@@H](O)[C@H](O[C@H]5O[C@H](CO)[C@@H](O)[C@H](O)[C@@H]5O[C@H]5O[C@H](CO)[C@@H](O)[C@H](O)[C@@H]5O)[C@@H]4O)[C@@H](O)[C@H](O[C@H]4O[C@H](CO)[C@@H](O)[C@H](O)[C@@H]4O[C@H]4O[C@H](CO)[C@@H](O)[C@H](O)[C@@H]4O[C@H]4O[C@H](CO)[C@@H](O)[C@H](O)[C@@H]4O)[C@@H]3O)CC2)nn1)NC=O)[C@@H](C)O)[C@@H](C)O)C(=O)N[C@@H](CO)C(=O)NCC(=O)N[C@@H](CO)C(=O)NCC(=O)N[C@@H](CO)C(=O)N[C@@H](CC(C)C)C(=O)NCC(=O)N[C@@H](Cc1c[nH]cn1)C(=O)N[C@@H](Cc1c[nH]cn1)C(=O)N[C@@H](Cc1c[nH]cn1)C(=O)N[C@@H](Cc1c[nH]cn1)C(=O)N[C@@H](Cc1c[nH]cn1)C(=O)N[C@@H](Cc1c[nH]cn1)C(=O)N[C@@H](CCCNC(=N)N)C(=O)N[C@@H](CC(=O)O)C(=O)N[C@@H](Cc1ccc(O)cc1)C(=O)N[C@@H](CCCCN)C(=O)N[C@@H](CC(=O)O)C(=O)N[C@@H](CC(=O)O)C(=O)N[C@@H](CC(=O)O)C(=O)N[C@@H](CC(=O)O)C(=O)N[C@@H](CCCCN)C(=O)O` (stereo partly shown) [Clone 6E, XQTACPSPAFLXLSRSAHYFHAXHPTSAAPDIS] returned a Kd of more than 128 nM.

The record behind these values is patent US11345912B2, “Directed evolution of multivalent glycopeptides that tightly bind to target proteins” (Brandeis University, priority 2013, dated 2022).
